Source: the C3SDB collision cross section collection

What was measured:
[1] = [M+Na]+; instrument: TW; calibrated with polyalanine
[2] = instrument: TW, calibrated with phosphatidylcholines (ESI+) and phosphatidylethanolamines (ESI-), doubly charged cardiolipins calibrated with poly-DL-…

SMILES	collision cross section (N2) ([2]; [M+Na]+) [Å²]	collision cross section (N2) ([2]; [M-H]-) [Å²]	other results
O=C(O)[C@H](O)COP(=O)(O)O [3-Phosphoglyceric acid]	–	–	collision cross section (N2) [1]: 134 Å²
CCCCCC/C=C\CCCCCCCC(=O)OC[C@H](COP(=O)(O)OCCNC(=O)CCCCCCCCCCCCCCC)OC(=O)CCCCCCCCCCCCCCC [AcylPE(48:1)]	325	316.85	–
CCCCCCCCCCCCCCCC(=O)NCCOP(=O)(O)OC[C@@H](COC(=O)CCCCCCCCCCCCCCC)OC(=O)CCCCCCCC1CC1CCCCCC (stereo partly specified) [AcylPE(49:1)]	328.3	320.39	–
CCCCCC/C=C\CCCCCCCC(=O)OC[C@H](COP(=O)(O)OC[C@@H](O)COC(=O)CCCCCCCCCCCCCCC)OC(=O)CCCCCCCCCCCCCCC [AcylPG(48:1)]	327.7	316.96	–
CCCCCCCCCCCCCCCC(=O)OC[C@H](O)COP(=O)(O)OC[C@@H](COC(=O)CCCCCCCCCCCCCCC)OC(=O)CCCCCCCC1CC1CCCCCC (stereo partly specified) [AcylPG(49:1)]	332.3	320.54	–
CCCCCC/C=C\CCCCCCCC(=O)OCC(COP(=O)(O)OCC(O)COP(=O)(O)OCC(COC(=O)CCCCCCCCCCCCCC)OC(=O)CCCCCCC/C=C\CCCCCC)OC(=O)CCCCCCC/C=C\CCCCCC (stereo unspecified) [CL(63:3)]	–	–	collision cross section (N2) ([2]; [M-2H]2-): 394.68 Å²
CCCCCC/C=C\CCCCCCCC(=O)OC(COC(=O)CCCCCCCC1CC1CCCCCC)COP(=O)(O)OCC(O)COP(=O)(O)OCC(COC(=O)CCCCCCCCCCCCCCC)OC(=O)CCCCCCC/C=C\CCCCCCCC (stereo unspecified) [CL(67:3)]	–	–	collision cross section (N2) ([2]; [M+2K]2+): 428.6 Å²; collision cross section (N2) ([2]; [M-2H]2-): 404.47 Å²
CCCCCC/C=C\CCCCCCCC(=O)OCC(COP(=O)(O)OCC(O)COP(=O)(O)OCC(COC(=O)CCCCCCCC1CC1CCCCCC)OC(=O)CCCCCCC/C=C\CCCCCC)OC(=O)CCCCCCC/C=C\CCCCCCCC (stereo unspecified) [CL(67:4)]	–	–	collision cross section (N2) ([2]; [M-2H]2-): 404.19 Å²
CCCCCC/C=C\CCCCCCCC(=O)OC(COC(=O)CCCCCCCC1CC1CCCCCCCC)COP(=O)(O)OCC(O)COP(=O)(O)OCC(COC(=O)CCCCCCCCCCCCCCC)OC(=O)CCCCCCC/C=C\CCCCCCCC (stereo unspecified) [CL(69:3)]	–	–	collision cross section (N2) ([2]; [M-2H]2-): 408.91 Å²
CCCCCCCCCCCCCCC(=O)O[C@H](CO)COP(=O)([O-])OCC[NH3+] [LPE(0:0/15:0)]	216.84	202.25	collision cross section (N2) ([2]; [M+H]+): 212.69 Å²
CCCCCCCC/C=C/CCCCCCCC(=O)O[C@H](CO)COP(=O)([O-])OCC[NH3+] [LPE(0:0/18:1)]	220.12	210.71	collision cross section (N2) ([2]; [M+H]+): 215.99 Å²
CCCCCCCCCCCCCC(=O)OC[C@@H](O)COP(=O)([O-])OCC[NH3+] [LPE(14:0/0:0)]	212.49	199.2	collision cross section (N2) ([2]; [M+H]+): 206.14 Å²
CCCCC1CC1CCCCCCCC(=O)OC[C@@H](O)COP(=O)([O-])OCC[NH3+] (stereo partly specified) [LPE(15:1/0:0)]	–	200.28	–
CCCCCCCC/C=C/CCCCCCCC(=O)OC[C@@H](O)COP(=O)([O-])OCC[NH3+] [LPE(18:1/0:0)]	219.17	211.1	collision cross section (N2) ([2]; [M+H]+): 214.35 Å²
CCCCCCCCC1CC1CCCCCCCC(=O)OC[C@@H](O)COP(=O)([O-])OCC[NH3+] (stereo partly specified) [LPE(19:1/0:0)]	225.77	214.97	collision cross section (N2) ([2]; [M+H]+): 219.65 Å²
CCCCCCCCCCCCCCC(=O)OC[C@@H](O)COP(=O)(O)OCC(O)CO (stereo partly specified) [LPG(15:0)]	–	209.66	–
CCCCCCCCCCCCCCCC(=O)O[C@H](CO)COP(=O)(O)OCC(O)CO (stereo partly specified) [LPG(16:0)]	–	213.25	–

SMILES	collision cross section (N2) ([2]; [M+Na]+) [Å²]	collision cross section (N2) ([2]; [M-H]-) [Å²]	other results
CCCCCC/C=C/CCCCCCCC(=O)O[C@H](CO)COP(=O)(O)OCC(O)CO (stereo partly specified) [LPG(16:1)]	–	209.98	–
CCCCCCC1CC1CCCCCCCC(=O)O[C@H](CO)COP(=O)(O)OCC(O)CO (stereo partly specified) [LPG(17:1)]	–	213.68	–
CCCCCCCC/C=C/CCCCCCCC(=O)O[C@H](CO)COP(=O)(O)OCC(O)CO (stereo partly specified) [LPG(18:1)]	–	217.26	–
CCCCCCCCCCCCCCCC(=O)OCC(COP(=O)(O)O)OC(=O)CCCCCCCC1CC1CCCC (stereo unspecified) [PA(31:1)]	–	245.76	–
CCCCCC/C=C\CCCCCCCC(=O)OCC(COP(=O)(O)O)OC(=O)CCCCCCC/C=C\CCCCCC (stereo unspecified) [PA(32:2)]	–	247.47	–
CCCCCCCCCCCCCCCC(=O)OCC(COP(=O)(O)O)OC(=O)CCCCCCCC1CC1CCCCCC (stereo unspecified) [PA(33:1)]	–	252.33	–
CCCCCCCCCCCCCCCC(=O)OCC(COP(=O)(O)O)OC(=O)CCCCCCCC1CC1CCCCCCCC (stereo unspecified) [PA(35:1)]	–	258.7	–
CCCCCC/C=C\CCCCCCCC(=O)OCC(COP(=O)(O)O)OC(=O)CCCCCCCC1CC1CCCCCCCC (stereo unspecified) [PA(35:2)]	–	256.82	–
CCCCCC/C=C\CCCCCCCC(=O)OCC(COP(=O)(O)OCCN)OC(=O)CCCCCCCCCCCCCCC (stereo unspecified) [PE(32:1)]	–	256.09	collision cross section (N2) ([2]; [M+H]+): 268.72 Å²
CCCCCC/C=C\CCCCCCCC(=O)OCC(COP(=O)(O)OCCN)OC(=O)CCCCCCCC1CC1CCCCCC (stereo unspecified) [PE(33:2)]	–	257.69	collision cross section (N2) ([2]; [M+H]+): 268.71 Å²
CCCCCCCC/C=C\CCCCCCCC(=O)OC(COC(=O)CCCCCCCCCCCCCCC)COP(=O)(O)OCCN (stereo unspecified) [PE(34:1)]	–	263.99	collision cross section (N2) ([2]; [M+H]+): 275.45 Å²
CCCCCCCCCCCCCCCC(=O)OCC(COP(=O)(O)OCCN)OC(=O)CCCCCCCC1CC1CCCCCCCC (stereo unspecified) [PE(35:1)]	–	267.54	collision cross section (N2) ([2]; [M+H]+): 279.52 Å²
CCCCCCCCCCCCCCCC(=O)OCC(COP(=O)(O)OCC(O)CO)OC(=O)CCCCCCCC1CC1CCCC (stereo unspecified) [PG(31:1)]	273.08	259.19	–
CCCCCC/C=C\CCCCCCCC(=O)OCC(COP(=O)(O)OCC(O)CO)OC(=O)CCCCCCCC1CC1CCCCCC (stereo unspecified) [PG(33:2)]	275.67	264.54	–
CCCCCCCCCCCCCCCC(=O)OCC(COP(=O)(O)OCC(O)CO)OC(=O)CCCCCCCC1CC1CCCCCCCC (stereo unspecified) [PG(35:1)]	287.26	273.44	–
CCCCCCCC/C=C\CCCCCCCC(=O)OCC(COP(=O)(O)OCC(O)CO)OC(=O)CCCCCCC/C=C\CCCCCCCC (stereo unspecified) [PG(36:2)]	283.87	275.05	–
